For data set [1] the following is noted: 8 mg dose, acidic conditions such as found in the stomach.
The conditions of data set [2]: 0.1 N HCl at room temperature (Bertelsen et al U.S. Pat. No. 6,713,089); cited from earlier work.
The conditions of data set [3]: cited from earlier work.
The conditions of data set [4]: cited from earlier work. This is another data set of the same source.
For data set [5] the following is noted: cited from earlier work. The source holds these as a separate data set.

Structures are written as SMILES. ≈ marks a conversion by molar mass, not a printed value. Where two headings read alike, the source gives them in different places.

In the case of `CN1C(=C(O)Nc2ccccn2)C(=O)c2sc(Cl)cc2S1(=O)=O` (stereo in doubt) [lornoxicam, (3E)-6-chloro-3-[hydroxy(pyridin-2-ylamino)methylene]-2-methyl-2,3-dihydro-4H-thieno[2,3-e][1,2]thiazin-4-one 1,1-dioxide], the “volume of acid required for complete dissolution” value in data set [1] is “more than 1400 ml”. The solubility entry in data set [2] is “less than 1 mg/100 ml”; in “physchem” (pH 1.2, simulated gastric fluid) it was 5.6 µg/mL (≈ 15.1 µM); in “physchem” (water) it was 10.4 µg/mL (≈ 28 µM). Moreover, the figures for the pKa in data set [3] (basic pyrimido group), in data set [3] and in data set [3] (enolic group) were 5.5, 4.7 and 1-2, respectively. The apparent partition coefficient in data set [3] (n-octanol/buffer pH 7.4) is 1.8. Further, in data set [4] (after administration of 4 mg twice daily), the “synovial fluid: plasma AUC ratios” value is listed as about 0.5. Also, in data set [4] (fasted subjects), the “Tmax, range” value was 1.4 to 6 h. For the same compound, the “time to reach peak plasma concentrations (Tmax)” value in data set [4] (fasted subjects) was “around 2.5 hours”. Further, the half-life result in data set [4] (in vivo) is listed as “approximately 4 hours”. Moreover, the “median Tmax” value was 0.5 h in data set [4] (new formulations containing 40% bicarbonate, co-processed intimately (US 20070218128, Bertelsen)) and 2.5 h in data set [4] (standard tablets (US 20070218128, Bertelsen)).

Regarding `O=C(O)Cc1ccccc1Nc1c(Cl)cccc1Cl` [diclofenac], the “mean Tmax” value in data set [5] (25 mg film-coated tablets with bicarbonate) was 21.2 min; in data set [5] (50 mg film-coated tablets with bicarbonate) it was 29.8 min; in data set [5] (standard immediate release tablets), 50.8 min.

One may read the solubility as the dissolved amount per volume that the medium holds. As usually defined, the pKa is the negative logarithm of the acid dissociation constant.

Source of the values: patent publication US20130171254A1, “FAST DISSOLVING PHARMACEUTICAL COMPOSITION COMPRISING LORNOXICAM” (ABBOTT HEALTHCARE PRIVATE LIMITED, priority 2009, published 2013).
